This is an account of results in article PMC5797045, “Characterization of CDK(5) inhibitor, 20-223 (aka CP668863) for colorectal cancer therapy” (Oncotarget, 2017).

Molecules are shown by their SMILES.

The target in one test is T1, CDK5 (Homo sapiens, UniProt Q00535).
T1 construct: with p35
Nature of the test: cell-free kinase assay, 10-point dose response. Type of test: biochemical.

The target in the next test is T2, CDK2 (Homo sapiens, UniProt P24941).
T2 construct: with Cyclin E
Nature of the test: cell-free kinase assay, 10-point dose response. Type of test: biochemical.

T1 sequence (Q00535 whole entry): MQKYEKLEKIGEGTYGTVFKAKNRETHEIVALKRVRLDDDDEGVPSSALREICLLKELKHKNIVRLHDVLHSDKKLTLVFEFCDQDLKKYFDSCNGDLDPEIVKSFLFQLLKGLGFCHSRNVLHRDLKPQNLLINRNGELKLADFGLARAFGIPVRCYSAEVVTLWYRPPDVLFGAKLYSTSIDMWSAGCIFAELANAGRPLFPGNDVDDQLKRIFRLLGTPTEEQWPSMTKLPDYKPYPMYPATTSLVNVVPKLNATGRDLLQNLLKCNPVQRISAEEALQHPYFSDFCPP
T1 sequence (Q15078 2-307 partner): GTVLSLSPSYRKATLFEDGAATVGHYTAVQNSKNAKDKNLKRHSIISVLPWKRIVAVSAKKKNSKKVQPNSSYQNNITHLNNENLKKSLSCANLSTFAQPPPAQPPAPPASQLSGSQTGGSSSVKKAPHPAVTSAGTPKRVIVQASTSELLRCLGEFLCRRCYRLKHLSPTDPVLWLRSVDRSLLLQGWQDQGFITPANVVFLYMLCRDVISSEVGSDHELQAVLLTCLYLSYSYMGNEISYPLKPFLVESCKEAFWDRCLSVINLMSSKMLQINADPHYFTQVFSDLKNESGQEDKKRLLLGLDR

Turning to `O=C(Cc1ccc2ccccc2c1)Nc1cc(C2CCC2)[nH]n1` [20-223], the IC50 against CDK5 turned out to be 8.8 nM; against CDK2 it was 6 nM.

Broadly, the IC50 is the concentration that gives 50% inhibition. A low value points to inhibition by little substance.
